# In US10471057B2, “Toxic RNA inhibitors self-assembled in situ” (THE SCRIPPS RESEARCH INSTITUTE, priority 2014, dated 2019):
# “Also recorded” adds a separate entry of the source.
# Experiments:
# [1] = system: DMPK mRNA; conditions: 100 nM, 48 h, qRT-PCR of r(CUG)-containing mRNAs
# Experimental: Target identification of small molecule dimers was assessed using DM1 patient derived fibroblasts containing 500 CTG repeats (GM03987) and healthy fibroblasts (GM07492). Cells were grown as monolayers in 100 mm^2 in growth medium (1×EMEM (Lonza), 10% FBS, 1× glutagro (Corning), 1×MEM non-essential amino acids (Corning) and 1× antibiotic/antimycotic (Corning)). Once cells were 80% confluent, they were treated with growth medium containing the compound of interest (100 nM 2H-K4NMeS-CA-Biotin). After 48 h the cells were lysed and the total RNA was harvested using Trizol reagent (Life Technologies). Approximately 10 of total RNA was incubated with streptavidin-agarose beads (100 Sigma) for 1 h at room temperature. Then the beads were washed with 1×PBS and the bound RNA was eluted by adding 100 μL of 95% formamide, 10 mM EDTA pH 8.2 for 10 min at 60° C. The bound RNA was cleaned up using a Zymo Quick RNA miniprep kit. Approximately 100 ng of RNA was used for RT qScript cDNA synthesis kit (Quanta BioSciences). 10% of the RT reaction was used for real time PCR (qPCR) with SYBR green master mix (Life Technologies) performed on a 7900HT Fast Real-Time PCR System (Applied Biosystems). Monitored rCUG-containing mRNAs DMPK (500 repeats), SUPT20HL1 (17 repeats), CASK (16 repeats), LRP8 (11 repeats), MAP3K4 (11 repeats), SCUBE (7 repeats) and SORCS2 (7 repeats). Quantified by ΔΔCt relative to GAPDH
# [2] = system: r(CUG)exp; assay: DM1 pre-mRNA splicing defects in patient derived fibroblasts; assay type: cell-based, human
# Experimental: Bioactivity of small molecule dimers was assessed by using DM1 patient derived fibroblasts containing 500 CTG repeats (GM03987) and healthy fibroblasts (GM07492). Cells were grown as monolayers in 12 well plates in growth medium (1×EMEM (Lonza), 10% FBS, 1× glutagro (Corning), 1×MEM non-essential amino acids (Corning) and 1× antibiotic/antimycotic (Corning)). Once cells were ˜80% confluent, they were treated with growth medium containing the compound of interest (10, 1, 0.1 and 0.01 μM 2H-K4NMeS; 100, 10 and 1 nM 2H-K4NMeS-CA-Biotin; 1 μM N3-2H-K4NMeS; 500 nM N3-2H-K4NMeS+500 nM 2H-K4NMeS-Aminohexanoate; 1000, 10 and 0.1 nM N3-2H-K4NMeS-Aak; 250, 100, and 50 nM 2H-K4NMeS-Bleomycin A5). After 48 h the cells were lysed and the total RNA was harvested using a Zymo Quick RNA miniprep kit. An on-column DNA digestion was completed per the manufacturer's recommended protocol. Approximately 150 ng of total RNA was reverse transcribed at 50° C. using 100 units of SuperScript III reverse transcriptase (Life Technologies). Then 20% of the RT reaction was subjected to PCR using GoTaq DNA polymerase (Promega). RT-PCR products were observed after 25 cycles of 95° C. for 30 s, 58° C. for 30 s, 72° C. for 1 min and a final extension at 72° C. for 1 min. The products were separated on an 2% agarose gel ran at 100 V for 1 h in 1×TAE buffer. The products were visualized by staining with ethidium bromide and scanned using a Bio-Rad Gel Doc XR+ imaging system. The RT-PCR primers for the MBNL1 were […]
# [3] = system: r(CUG)109; assay: In vitro reaction and pull down of small molecule dimers with RNA; assay type: biochemical; conditions: rCUG109, GC-based paired RNA and tRNA
# Experimental: Then 30 μL of this slurry were added to each sample and incubated at room temperature for 1 h. Then the samples were centrifuged and the supernatant was transferred to a separate tube. The beads were then washed with 1×PBST and centrifuged. The supernatant was transferred to the tube containing the unbound RNA. The total radioactive counts of bound and unbound RNA were measured by scintillation counting.
# [4] = Metabolic stability in rat microsomes; assay type: in vitro ADME
# [5] = system: r(CUG)exp; assay: Splicing defects in HSA LR DM1 mouse model; assay type: in vivo; conditions: intraperitoneal once per day for 7 days, vastus muscle
# Experimental: All experimental procedures, mouse handling, and husbandry were completed in accordance with the Association for Assessment and Accreditation of Laboratory Animal Care. A mouse model for DM1^[8], HSA^LR in line 20b, was used. HSA^LR mice express human skeletal actin RNA with 250 CUG repeats in the 3′ UTR. Age- and gender-matched HSA^LR mice were injected intraperitoneally with either 100 mg/kg 2H-K4NMe in water or 13.3 mg/kg 2H-K4NMeS for treatment and 0.9% NaCl for control once per day for 7 days. Mice were sacrificed one day after the last injection, and the vastus muscle was obtained. RNA was extracted from the vastus tissue, and cDNA was synthesized as previously described.
# [6] = system: r(CUG) repeats in 3' UTR of luciferase; assay: Translational defect luciferase reporter assay, 800 CTG repeats; assay type: cell-based; conditions: cells with long, toxic r(CUG) repeats
# Experimental: (§1) C2C12 cell lines expressing 800 or 0 CTG repeats in the 3′ UTR of luciferase were grown as monolayers in 96-well plates in growth medium (1×DMEM, 10% FBS, 1× glutagro, (Corning) andlX antibiotic/antimycotic (Corning))^[10]. Once the cells were 70% confluent, the click functionalized dimers were added in 100 μL of growth medium (1000 nM N3-2H-K4NMeS and 1000, 10 and 0.1 nM N3-2H-K4NMeS-Aak). Cells were treated with compound for 48 h and then the cell count was normalized using WST-1 reagent (Roche). Then cells were washed with 1×DPBS and lysed by treating with 50 μL of PPBT lysis buffer at room temperature for 10 minutes. Then 50 μL of luciferase substrate was added and luminescence was measured.
# [7] = system: r(CUG)exp; assay: Nuclear foci by FISH in DM1 patient derived fibroblasts; assay type: cell-based, human; conditions: 48 h
# Experimental: FISH was utilized to determine the effects of small molecule dimers on the formation and disruption of nuclear foci. DM1 patient derived fibroblasts containing 500 CTG repeats (GM03987) were grown to ˜80% confluence in a Mat-Tek 96-well glass bottom plate in growth medium. Cells were treated with the compound of interest for 48 h in growth medium followed by FISH as previously described^6 using 1 ng/μL DY547-2′OMe-(CAG)6. Immunostaining of MBNL1 was completed as previously described^7 using the MB1a antibody (diluted 1:4), which was generously supplied by Prof. Glenn E. Morris (Wolfson Centre for Inherited Neuromuscular Disease^[9]. This was fluorescently labeled using a 1:200 dilution of goat anti-mouse IgG DyLight 488 conjugate. Untreated controls were stained using a 1 μg/μL solution of DAPI in 1×DPBS. Cells were imaged in 1×DPBS using an Olympus FluoView 1000 confocal microscope at 100× magnification.
# [8] = system: luciferase reporter without CTG repeats; assay: Translational defect luciferase reporter assay, 0 CTG repeats; assay type: cell-based
# Experimental: as §1
# [9] = system: r(CCUG)300; assay: Disruption of nuclear foci by FISH in DM2 cell culture model; assay type: cell-based; conditions: C2C12 cells expressing r(CCUG)300, 72 h treatment; untreated 9±2
# Experimental: FISH was utilized to determine the effects of clickable compounds on the formation of nuclear foci. C2C12 were sub-cultured into Mat-Tek 96-well glass bottom plates in growth medium. After the cells reached 60-70% confluency, each well was transfected with 200 ng of total plasmid using 1 μL of Lipofectamine 2000 according to the manufacturer's standard protocol. Equal amounts of plasmids expressing the DM2 mini-gene^[1] and EGFP, used as a positive marker of transfection, were used. After 5 h, the transfection cocktail was removed and replaced with differentiation medium containing the compound of interest. The cells were treated with compound for 72 h followed by FISH as previously described using 1 ng/μL DY547-2′OMe-(CAGG)5^[6]. Cells were imaged in 1×DPBS using an Olympus FluoView 1000 confocal microscope at 100× magnification.
compound,measurement,setting,value
C[C@H](NC(=O)[C@H](C)N(C)C(=O)CN(CCN(C)C(=O)CCCOc1cccc(-c2nc3ccc(-c4nc5cc(N6CCN(C)CC6)ccc5[nH]4)cc3[nH]2)c1)C(=O)CN(CCNC(=O)CCCC[C@@H]1SC[C@@H]2NC(=O)N[C@@H]21)C(=O)CCNC(=O)CCCc1ccc(N(CCCl)CCCl)cc1)C(=O)N(C)[C@@H](C)C(=O)N(CCCCN(C)C(=O)CCCOc1cccc(-c2nc3ccc(-c4nc5cc(N6CCN(C)CC6)ccc5[nH]4)cc3[nH]2)c1)CC(N)=O [2H-K4NMeS-CA-Biotin],RNA targets pulled down (Chem-CLIP),[1],binds to disease-causing expanded transcripts and not other RNAs with shorter (non-pathogenic length) r(CUG) repeats
same,improvement of DM1-associated pre-mRNA splicing defects (in words),[2]; cells,improves DM1-associated pre-mRNA splicing defects in cells
same,in vitro reaction with RNA targets,[3],most effectively reacted with r(CUG)109
C[C@@H](C(=O)N(C)[C@@H](C)C(=O)N(C)[C@@H](C)C(=O)N(C)[C@@H](C)C(=O)N(CCCCN(C)C(=O)CCCOc1cccc(-c2nc3ccc(-c4nc5cc(N6CCN(C)CC6)ccc5[nH]4)cc3[nH]2)c1)CC(N)=O)N(C)C(=O)CCCOc1cccc(-c2nc3ccc(-c4nc5cc(N6CCN(C)CC6)ccc5[nH]4)cc3[nH]2)c1 [2H-K4NMeS],rescue of pre-mRNA splicing defect,"[2]; DM1 patient-derived fibroblasts, concentrations greater than 100 nM",> 50%
same,stability in microsomes (in words),[4],stable in microsomes; also recorded: stable to rat microsomes
same,potency at improving Clen1 pre-mRNA splicing defect compared to 2H-K4NMe,[5],> 7 fold
C#CC(=O)NCCCCCC(=O)N(CCN(C)C(=O)CCCOc1cccc(-c2nc3ccc(-c4nc5cc(N6CCN(C)CC6)ccc5[nH]4)cc3[nH]2)c1)CC(=O)N(C)[C@@H](C)C(=O)N(C)[C@@H](C)C(=O)N(C)[C@@H](C)C(=O)N(CCCCN(C)C(=O)CCCOc1cccc(-c2nc3ccc(-c4nc5cc(N6CCN(C)CC6)ccc5[nH]4)cc3[nH]2)c1)CC(=O)N(CCCN=[N+]=[N-])CC(N)=O [N3-2H-K4NMeS-Aak],DMPK translational defect,[6],improved the DMPK translational defect at nanomolar concentrations
same,improvement of DM1-associated pre-mRNA splicing defects,"[2]; DM1 patient-derived fibroblasts, 10 nM dosage",> 50%
same,RNA nuclear foci,[7],far fewer foci are observed
same,effect on translation in cells without pathogenic repeats,[8],has no effect on cells that did not have pathogenic repeats
[N-]=[N+]=NCC1OC(OC2C(N)CC(N)C(OC3OC(CN)C(O)C(O)C3O)C2O)C(O)C(N)C1O (centres unmarked) [N3-K],average number of foci per cell,[9],6±2 foci per cell
